From patent US20230087844A1, “USE OF N2-QUINCLINE OR ISOQUINOLINE SUBSTITUTED PURINE DERIVATIVES IN CANCER TREATMENT” (SHANGHAI HUAYU BIOTECHNOLOGY CO., LTD., priority 2020, published 2023)
Marks after values point to notes of the source that are not given here.

Assays:
PI3K γ isoform = PI3K γ isoform (Homo sapiens, UniProt P48736); test: PI3K γ isoform inhibition; details: one of the other three isoforms
[1] = test system: SGC-7901 human gastric cancer cells; test: SGC-7901 gastric cancer xenograft in mice; details: D0, 3, 6, 9, 12; for T/C: D18
Method: Mice body weights and tumor sizes were measured 2 to 3 times a week. The tumor volume (V) was calculated as (length× width^2)/2. T/C (%) was calculated as (T-T0)/(C-C0)×100, wherein T and C represented the tumor volumes in the administration group and the vehicle group respectively at the end of the experiment, while T0 and C0 represented the tumor volumes in the administration group and the vehicle group respectively at the beginning of the experiment. And RTV was calculated as (Tumor volume at Day N/Tumor volume at Day 0).
BALB/cA-nude mice, 5-6 weeks old, purchased from Shanghai SLAC Laboratory Animal Co., Ltd, were subcutaneously inoculated with SGC-7901 human gastric cancer cells (from Cell Bank, Chinese Academy of Sciences).
Mice body weights and tumor sizes were measured 2 to 3 times a week. The tumor volume, T/C and RTV were calculated as described above. Mice were sacrificed on Day 18.

SK-BR-3 = test: MTT tumor cell proliferation, SK-BR-3; format: cell-based; details: Homo sapiens; SK-BR-3, Breast cancer, 72 hour
Method: (§1) as an exemplary compound of formula (I), was tested for its inhibitory effect on tumor cell proliferation in a MTT assay.
(§2) Briefly, cells at the log phase were collected, suspended in the cell culture medium at 4*10^4/ml density, and plated in 96-well plates, 90 μl per well. The plates were kept in a 5% CO2 and 37° C. incubator for 2 hours, and then added with 100 μg/ml, 10 μg/ml, 1 μg/ml, 0.1 μg/ml, 0.01 μg/ml or 0.001 μg/ml Compound A, 4 replicates for each cell at each compound concentration. DMSO was used in the positive control group, and another negative group was also set. After 72 hour incubation in the same incubator, 20 μl 5 mg/ml MTT reagent was added to each well. After another 4 hour incubation, each well was added with 100 μl SDS and further incubated for 12 hours. Absorbance at 570 nm was read in a reader, and IC50 was calculated.

HT-29 = test: MTT tumor cell proliferation, HT-29; format: cell-based; details: Homo sapiens; HT-29, Colon cancer, 72 hour
Method: as §1, §2

PI3K α isoform = PI3K α isoform (Homo sapiens, UniProt P42336); details: one of the other three isoforms
Sequence of PI3K α isoform (P42336 whole entry, canonical isoform): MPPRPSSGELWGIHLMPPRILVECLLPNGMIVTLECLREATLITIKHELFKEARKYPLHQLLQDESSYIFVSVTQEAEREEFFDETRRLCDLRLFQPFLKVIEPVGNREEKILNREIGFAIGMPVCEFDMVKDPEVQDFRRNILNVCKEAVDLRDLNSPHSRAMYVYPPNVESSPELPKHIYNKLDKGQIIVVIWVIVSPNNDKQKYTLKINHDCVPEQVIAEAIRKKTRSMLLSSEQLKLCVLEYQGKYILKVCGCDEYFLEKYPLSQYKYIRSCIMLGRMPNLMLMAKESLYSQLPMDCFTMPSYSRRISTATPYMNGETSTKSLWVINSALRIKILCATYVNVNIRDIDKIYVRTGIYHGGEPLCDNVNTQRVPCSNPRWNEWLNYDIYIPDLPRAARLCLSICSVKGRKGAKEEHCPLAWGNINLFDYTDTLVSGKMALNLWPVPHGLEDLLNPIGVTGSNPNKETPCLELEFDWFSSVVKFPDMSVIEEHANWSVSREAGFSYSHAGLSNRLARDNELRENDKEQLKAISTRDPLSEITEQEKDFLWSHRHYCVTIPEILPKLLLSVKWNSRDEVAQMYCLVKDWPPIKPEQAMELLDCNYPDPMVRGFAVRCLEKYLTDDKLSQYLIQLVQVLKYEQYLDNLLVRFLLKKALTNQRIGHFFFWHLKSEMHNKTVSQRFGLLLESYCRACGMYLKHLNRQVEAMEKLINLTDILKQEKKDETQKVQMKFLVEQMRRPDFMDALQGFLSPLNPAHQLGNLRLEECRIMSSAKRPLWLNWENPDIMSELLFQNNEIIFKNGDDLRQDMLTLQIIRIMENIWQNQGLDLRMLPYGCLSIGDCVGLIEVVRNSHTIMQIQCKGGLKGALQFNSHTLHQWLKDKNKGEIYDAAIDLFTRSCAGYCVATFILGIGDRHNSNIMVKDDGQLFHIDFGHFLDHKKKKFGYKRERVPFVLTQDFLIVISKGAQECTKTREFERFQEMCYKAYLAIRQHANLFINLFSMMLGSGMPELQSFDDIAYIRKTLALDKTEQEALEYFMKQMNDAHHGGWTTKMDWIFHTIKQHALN
Sequence of PI3K α isoform (P27986 whole entry partner, canonical isoform): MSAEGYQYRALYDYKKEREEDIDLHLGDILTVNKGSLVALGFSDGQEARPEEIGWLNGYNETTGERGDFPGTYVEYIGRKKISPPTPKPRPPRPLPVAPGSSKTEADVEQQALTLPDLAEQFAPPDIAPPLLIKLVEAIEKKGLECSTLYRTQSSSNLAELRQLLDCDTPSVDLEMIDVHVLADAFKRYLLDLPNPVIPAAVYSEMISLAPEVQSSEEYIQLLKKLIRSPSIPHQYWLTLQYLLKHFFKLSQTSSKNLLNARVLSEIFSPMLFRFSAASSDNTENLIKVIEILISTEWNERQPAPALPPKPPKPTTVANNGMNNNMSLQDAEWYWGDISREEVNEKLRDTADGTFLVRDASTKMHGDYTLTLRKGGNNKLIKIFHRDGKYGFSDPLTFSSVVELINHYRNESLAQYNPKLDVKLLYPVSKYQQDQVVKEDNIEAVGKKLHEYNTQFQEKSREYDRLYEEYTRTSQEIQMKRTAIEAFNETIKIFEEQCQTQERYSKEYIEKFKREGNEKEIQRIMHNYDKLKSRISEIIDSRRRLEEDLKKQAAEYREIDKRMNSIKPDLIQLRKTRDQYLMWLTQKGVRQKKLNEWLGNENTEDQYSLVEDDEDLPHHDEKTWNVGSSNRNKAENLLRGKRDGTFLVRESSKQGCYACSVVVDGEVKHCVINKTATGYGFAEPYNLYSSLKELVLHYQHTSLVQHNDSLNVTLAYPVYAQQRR

MCF-7 = test: MTT tumor cell proliferation, MCF-7; format: cell-based; details: Homo sapiens, MCF7; MCF-7, Breast cancer, 72 hour
Method: as §1, §2

[2] = test system: Ls-174t human colon cancer cells; test: Ls-174t colon cancer xenograft in mice; format: in vivo, BALB/cA-nude mice; details: for T/C: D14
Source text: Mice were sacrificed on Day-14.

H446 = test: Tumor cell death by MTT, H446; format: cell-based, human; details: 20 nM
Method: (§3) The in vitro inhibitory effect of Compound A alone or in combination with a PARP inhibitor on tumor cell growth was tested using human small cell lung cancer (SCLC) cell lines, including H69 (ATCC® HTB-119™), H526 (ATCC® CRL-5811™) and H446 (TCHu196, National Collection of Authenticated Cell Cultures).
(§4) Briefly, the cells were seeded into a 96-well dish with RPMI-1640 (10-040-CV, Coming cellgro) containing 10% fetal bovine serum (10270-106, GIBCO), 1% penicillin and 1% streptomycin (BaSalMedia, S110JV), at an initial density of 3×10^3 cells per well ([…]), and cultured at a 37° C., 5% CO2 humidified incubator for 24 hours. Then, the culture media were added with Compound A (final concentration at 20 nM), olaparib (APEXBIO, A4154, a PARP inhibitor, final concentration at 10 μM), Compound A + olaparib (final concentrations at20 nM and 10 μM), or PBS (vehicle), respectively, and the cells were cultured for 48 hours. Then, cell viability was determined by MTT. The test was done in triplicate.
(§5) Cell death rate was calculated by the following formula.
(§6) Cell death rate=[1−(ODtest-ODvehicle)]×100%
(§7) Cell death rates were analyzed using student's t-test, and group differences were deemed statistically significant when the p-value was lower than 0.05. Zheng-Jun Jin's Q value was calculated using the formula Q=EA+B/(EA+EB-EA×EB) to assess the combined effect of Compound A and the PARP inhibitor, wherein EA+B, EA, and EB referred to the cell death rates caused by the combined treatment, Compound A treatment and PARP inhibitor treatment, respectively. A Q value higher than 1.15 meant a synergistic […] effect.
(§8) Another PARP inhibitor, rucaparib (APEXBIO, A4156), was tested alone or with Compound A for inhibitory effect on tumor cell growth, following the protocol of Example 9.

K562 = test: MTT tumor cell proliferation, K562; format: cell-based; details: Homo sapiens; K562, Chronic myeloid leukemia, 72 hour
Method: as §1, §2

MV-4-11 = test: MTT tumor cell proliferation, MV-4-11; format: cell-based; details: Homo sapiens, MV4-11; MV-4-11, Acute myeloid leukemia, 72 hour
Method: as §1, §2

H526 = test: Tumor cell death by MTT, H526; format: cell-based, human; details: 20 nM
Method: as §3, §4, §5, §6, §7, §8

SGC-7901 = test: MTT tumor cell proliferation, SGC-7901; format: cell-based; details: Homo sapiens; SGC-7901, Gastric cancer, 72 hour
Method: as §1, §2

[3] = test system: S180 murine sarcoma cancer cells; test: S180 sarcoma growth in mice; details: for TGI: tumor weight, Day 8
Method: On Day 8, the mice were weighed and sacrificed, and the tumors were collected and weighed.
Tumor growth inhibition (TGI) was calculated by the following formula. Tumor growth inhibition=(average tumor weight in vehicle group-average tumor weight in administration group)/average tumor weight in vehicle group×100%

Sequence of PI3K γ isoform (P48736 whole entry, canonical isoform): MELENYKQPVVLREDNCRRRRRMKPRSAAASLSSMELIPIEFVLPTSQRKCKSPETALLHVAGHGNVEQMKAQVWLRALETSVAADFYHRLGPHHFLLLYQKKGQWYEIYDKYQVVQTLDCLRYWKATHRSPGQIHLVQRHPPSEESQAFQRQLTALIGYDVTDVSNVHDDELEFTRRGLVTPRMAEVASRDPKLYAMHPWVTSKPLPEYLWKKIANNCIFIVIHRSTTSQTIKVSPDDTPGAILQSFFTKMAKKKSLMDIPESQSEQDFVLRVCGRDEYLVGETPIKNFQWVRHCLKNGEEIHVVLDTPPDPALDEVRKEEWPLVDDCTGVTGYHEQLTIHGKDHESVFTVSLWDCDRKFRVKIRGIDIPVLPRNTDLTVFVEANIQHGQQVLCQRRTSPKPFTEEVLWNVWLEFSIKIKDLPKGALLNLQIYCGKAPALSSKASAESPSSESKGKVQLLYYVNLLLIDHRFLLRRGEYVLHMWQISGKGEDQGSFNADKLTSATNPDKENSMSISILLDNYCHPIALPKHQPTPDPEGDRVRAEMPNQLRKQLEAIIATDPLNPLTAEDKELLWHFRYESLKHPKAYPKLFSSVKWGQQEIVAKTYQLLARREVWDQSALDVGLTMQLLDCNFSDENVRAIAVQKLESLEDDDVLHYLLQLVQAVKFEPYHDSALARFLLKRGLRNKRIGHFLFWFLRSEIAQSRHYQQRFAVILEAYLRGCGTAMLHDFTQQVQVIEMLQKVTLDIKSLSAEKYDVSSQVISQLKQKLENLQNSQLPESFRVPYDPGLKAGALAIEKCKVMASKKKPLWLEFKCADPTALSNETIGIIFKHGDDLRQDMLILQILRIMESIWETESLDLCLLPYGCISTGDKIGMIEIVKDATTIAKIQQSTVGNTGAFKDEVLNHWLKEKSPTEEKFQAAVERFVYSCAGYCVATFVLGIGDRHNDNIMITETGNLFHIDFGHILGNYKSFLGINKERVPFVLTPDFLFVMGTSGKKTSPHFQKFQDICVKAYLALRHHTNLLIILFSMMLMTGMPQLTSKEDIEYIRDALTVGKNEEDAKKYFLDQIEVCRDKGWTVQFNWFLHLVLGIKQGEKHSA

c1cnc2ccc(Nc3nc(NC4CC4)c4nc[nH]c4n3)cc2c1 [Compound A]
EC50, PI3K γ isoform (PI3K γ isoform): at the μM level | RTV at D18 ([1]; 15 mg/kg P.O.): 5.57 ± 2.74 | Tumor volume D0 ([1]; 15 mg/kg P.O.): 162 ± 32 mm^3 | Tumor volume D18 ([1]; 15 mg/kg P.O.): 845 ± 349 mm^3 | T/C ([1]; 15 mg/kg P.O.): 68.2% | RTV at D18 ([1]; 30 mg/kg P.O.): 3.73 ± 1.16 | Tumor volume D0 ([1]; 30 mg/kg P.O.): 197 ± 45 mm^3 | Tumor volume D18 ([1]; 30 mg/kg P.O.): 701 ± 142 mm^3 | T/C ([1]; 30 mg/kg P.O.): 45.7* % | RTV at D18 ([1]; 60 mg/kg P.O.): 2.58 ± 1.07 | Tumor volume D0 ([1]; 60 mg/kg P.O.): 215 ± 49 mm^3 | Tumor volume D18 ([1]; 60 mg/kg P.O.): 545 ± 233 mm^3 | T/C ([1]; 60 mg/kg P.O.): 31.6* % | IC50 (SK-BR-3): 16.5 ± 0.9 µM | IC50 (HT-29): 6.1 ± 0.2 µM | EC50, PI3K α isoform (PI3K α isoform): at the μM level | IC50 (MCF-7): 26.5 ± 7.7 µM | Body weight (without tumor) D0 ([2]; 25 mg/kg P.O., D0, 2, 4, 8, 10): 23.7 g | Body weight (without tumor) D14 ([2]; 25 mg/kg P.O., D0, 2, 4, 8, 10): 17.7 g | RTV at D14 ([2]; 25 mg/kg P.O., D0, 2, 4, 8, 10): 13.91 ± 2.39 | Tumor volume D0 ([2]; 25 mg/kg P.O., D0, 2, 4, 8, 10): 145 ± 19 mm^3 | Tumor volume D14 ([2]; 25 mg/kg P.O., D0, 2, 4, 8, 10): 1997 ± 316 mm^3 | T/C ([2]; 25 mg/kg P.O., D0, 2, 4, 8, 10): 66% | Body weight (without tumor) D0 ([2]; 50 mg/kg P.O., D0, 3, 6, 9): 23.4 g | Body weight (without tumor) D14 ([2]; 50 mg/kg P.O., D0, 3, 6, 9): 16.2 g | RTV at D14 ([2]; 50 mg/kg P.O., D0, 3, 6, 9): 8.21 ± 3.55 | Tumor volume D0 ([2]; 50 mg/kg P.O., D0, 3, 6, 9): 147 ± 22 mm^3 | Tumor volume D14 ([2]; 50 mg/kg P.O., D0, 3, 6, 9): 1176 ± 450 mm^3 | T/C ([2]; 50 mg/kg P.O., D0, 3, 6, 9): 38.9* % | Body weight (without tumor) D0 ([2]; 50 mg/kg P.O., D0, 4, 8): 23.3 g | Body weight (without tumor) D14 ([2]; 50 mg/kg P.O., D0, 4, 8): 16.9 g | RTV at D14 ([2]; 50 mg/kg P.O., D0, 4, 8): 10.25 ± 2.39 | Tumor volume D0 ([2]; 50 mg/kg P.O., D0, 4, 8): 149 ± 29 mm^3 | Tumor volume D14 ([2]; 50 mg/kg P.O., D0, 4, 8): 1497 ± 282 mm^3 | T/C ([2]; 50 mg/kg P.O., D0, 4, 8): 48.6* % | Cell Death Rate/% 1 (H446; 48 hours, Table 10): 13.5% | Cell Death Rate/% 2 (H446; 48 hours, Table 10): 13.18% | Cell Death Rate/% 3 (H446; 48 hours, Table 10): 13.67% | Cell Death Rate/% mean (H446; 48 hours, Table 10): 13.45% | Cell Death Rate/% 1 (H446; Example 10, Table 11): 15% | Cell Death Rate/% 2 (H446; Example 10, Table 11): 14.62% | Cell Death Rate/% 3 (H446; Example 10, Table 11): 15.17% | Cell Death Rate/% mean (H446; Example 10, Table 11): 14.93% | IC50 (K562): 1200 ± 100 nM | IC50 (MV-4-11): 300 ± 100 nM | Cell Death Rate/% 1 (H526; 48 hours, Table 10): 10.5% | Cell Death Rate/% 2 (H526; 48 hours, Table 10): 9.87% | Cell Death Rate/% 3 (H526; 48 hours, Table 10): 10.95% | Cell Death Rate/% mean (H526; 48 hours, Table 10): 10.44% | Cell Death Rate/% 1 (H526; Example 10, Table 11): 8.29% | Cell Death Rate/% 2 (H526; Example 10, Table 11): 8.39% | Cell Death Rate/% 3 (H526; Example 10, Table 11): 8.64% | Cell Death Rate/% mean (H526; Example 10, Table 11): 8.44% | IC50 (SGC-7901): 3.8 ± 0.6 µM | Tumor weight on Day 8 ([3]; 60 mg/kg P.O., D1-4): 0.33 ± 0.13 g | TGI ([3]; 60 mg/kg P.O., D1-4): 82.8* % | Tumor weight on Day 8 ([3]; 80 mg/kg I.V., D1&D4): 1.10 ± 0.21 g | TGI ([3]; 80 mg/kg I.V., D1&D4): 42.7* % | Tumor weight on Day 8 ([3]; 80 mg/kg P.O., D1 &D4): 1.12 ± 0.34 g | TGI ([3]; 80 mg/kg P.O., D1 &D4): 41.7* %
